Measurements as given in patent US20230301300A1, “HERBICIDAL COMPOSITIONS” (SYNGENTA CROP PROTECTION AG, priority 2020, published 2023).

Legend:
Assay in all cases: B2 Post-Emergence Efficacy - Test 2
Type in all cases: in vivo
Glycine max (GLXMA) = settings: 15 days after application; for Herbicidal activity on a 0-100 scale, GLXMA: 0=no damage, 100=total kill; for Herbicidal activity GLXMA: 0-100 scale
Method in brief: (§1)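 Glasshouse post-emergence test: plants sown in standard soil, grown 12 days (24/18 °C or 20/16 °C day/night; 16 h light; 65% humidity), sprayed once with an aqueous IF50-based formulation including 0.2% v/v Genapol X080. Visual injury, 0–100, recorded 15 days post-application.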

[1] = tested on: Alopecurus myosuroides (ALOMY); settings: 15 days after application, 0-100 scale
Method in brief: as §1

Bidens pilosa (BIDPI) = settings: 15 days after application, 0-100 scale
Method in brief: as §1

Sorghum bicolour (SORVU) = settings: 15 days after application, 0=no damage, 100=total kill
Method in brief: as §1

[2] = tested on: Panicum miliaceum (PANMI); settings: 15 days after application, 0=no damage, 100=total kill
Method in brief: as §1

Sida spinosa (SIDSP) = settings: 15 days after application, 0-100 scale
Method in brief: as §1

[3] = tested on: Xanthium strumarium (XANST); settings: 15 days after application, 0-100 scale
Method in brief: as §1

[4] = tested on: Euphorbia hetrophylla (EPHHL); settings: 15 days after application, 0-100 scale
Method in brief: as §1

[5] = tested on: Digitaria sanguinalis (DIGSA); settings: 15 days after application, 0=no damage, 100=total kill
Method in brief: as §1

Avena fatua (AVEFA) = settings: 15 days after application, 0-100 scale
Method in brief: as §1

Structure (SMILES): Cc1nn(C)c(=O)c(-c2c(F)ccc(Cl)c2CCc2ccc(C#N)cc2)c1O [Compound 1.024, 4-[3-chloro-6-fluoro-2-[2-[4-(cyano)phenyl]ethyl]phenyl]-5-hydroxy-2,6-dimethyl-pyridazin-3-one]
- Herbicidal activity on a 0-100 scale, GLXMA (Glycine max (GLXMA); 60 g/Ha): 90
- Herbicidal activity GLXMA (Glycine max (GLXMA); 125 g/Ha): 90
- Herbicidal activity on a 0-100 scale, GLXMA (Glycine max (GLXMA); 125 g/Ha): 90
- Herbicidal activity GLXMA (Glycine max (GLXMA); 250 g/Ha): 100
- Herbicidal activity on a 0-100 scale, GLXMA (Glycine max (GLXMA); 250 g/Ha): 100
- Herbicidal activity GLXMA (Glycine max (GLXMA); 500 g/Ha): 100
- Herbicidal activity on a 0-100 scale, GLXMA (Glycine max (GLXMA); 500 g/Ha): 100
- Herbicidal activity ALOMY ([1]; 15 g/Ha): 10
- Herbicidal activity ALOMY ([1]; 30 g/Ha): 30
- Herbicidal activity ALOMY ([1]; 60 g/Ha): 50
- Herbicidal activity ALOMY ([1]; 125 g/Ha): 70
- Herbicidal activity ALOMY ([1]; 250 g/Ha): 70
- Herbicidal activity ALOMY ([1]; 500 g/Ha): 70
- Herbicidal activity BIDPI (Bidens pilosa (BIDPI); 15 g/Ha): 80
- Herbicidal activity BIDPI (Bidens pilosa (BIDPI); 30 g/Ha): 80
- Herbicidal activity BIDPI (Bidens pilosa (BIDPI); 60 g/Ha): 80
- Herbicidal activity BIDPI (Bidens pilosa (BIDPI); 125 g/Ha): 80
- Herbicidal activity BIDPI (Bidens pilosa (BIDPI); 250 g/Ha): 80
- Herbicidal activity BIDPI (Bidens pilosa (BIDPI); 500 g/Ha): 90
- Herbicidal activity on a 0-100 scale, SORVU (Sorghum bicolour (SORVU); 15 g/Ha): 0
- Herbicidal activity on a 0-100 scale, SORVU (Sorghum bicolour (SORVU); 30 g/Ha): 10
- Herbicidal activity on a 0-100 scale, SORVU (Sorghum bicolour (SORVU); 60 g/Ha): 70
- Herbicidal activity on a 0-100 scale, SORVU (Sorghum bicolour (SORVU); 125 g/Ha): 80
- Herbicidal activity on a 0-100 scale, SORVU (Sorghum bicolour (SORVU); 250 g/Ha): 90
- Herbicidal activity on a 0-100 scale, SORVU (Sorghum bicolour (SORVU); 500 g/Ha): 100
- Herbicidal activity on a 0-100 scale, PANMI ([2]; 15 g/Ha): 0
- Herbicidal activity on a 0-100 scale, PANMI ([2]; 30 g/Ha): 70
- Herbicidal activity on a 0-100 scale, PANMI ([2]; 60 g/Ha): 80
- Herbicidal activity on a 0-100 scale, PANMI ([2]; 125 g/Ha): 90
- Herbicidal activity on a 0-100 scale, PANMI ([2]; 250 g/Ha): 90
- Herbicidal activity on a 0-100 scale, PANMI ([2]; 500 g/Ha): 100
- Herbicidal activity SIDSP (Sida spinosa (SIDSP); 15 g/Ha): 80
- Herbicidal activity SIDSP (Sida spinosa (SIDSP); 30 g/Ha): 90
- Herbicidal activity SIDSP (Sida spinosa (SIDSP); 60 g/Ha): 90
- Herbicidal activity SIDSP (Sida spinosa (SIDSP); 125 g/Ha): 100
- Herbicidal activity SIDSP (Sida spinosa (SIDSP); 250 g/Ha): 100
- Herbicidal activity SIDSP (Sida spinosa (SIDSP); 500 g/Ha): 100
- Herbicidal activity XANST ([3]; 60 g/Ha): 80
- Herbicidal activity XANST ([3]; 125 g/Ha): 80
- Herbicidal activity XANST ([3]; 500 g/Ha): 100
- Herbicidal activity EPHHL ([4]; 15 g/Ha): 70
- Herbicidal activity EPHHL ([4]; 30 g/Ha): 90
- Herbicidal activity EPHHL ([4]; 60 g/Ha): 90
- Herbicidal activity EPHHL ([4]; 125 g/Ha): 90
- Herbicidal activity EPHHL ([4]; 250 g/Ha): 100
- Herbicidal activity EPHHL ([4]; 500 g/Ha): 100
- Herbicidal activity on a 0-100 scale, DIGSA ([5]; 15 g/Ha): 0
- Herbicidal activity on a 0-100 scale, DIGSA ([5]; 30 g/Ha): 20
- Herbicidal activity on a 0-100 scale, DIGSA ([5]; 60 g/Ha): 40
- Herbicidal activity on a 0-100 scale, DIGSA ([5]; 125 g/Ha): 80
- Herbicidal activity on a 0-100 scale, DIGSA ([5]; 250 g/Ha): 90
- Herbicidal activity on a 0-100 scale, DIGSA ([5]; 500 g/Ha): 90
- Herbicidal activity AVEFA (Avena fatua (AVEFA); 15 g/Ha): 10
- Herbicidal activity AVEFA (Avena fatua (AVEFA); 30 g/Ha): 20
- Herbicidal activity AVEFA (Avena fatua (AVEFA); 60 g/Ha): 30
- Herbicidal activity AVEFA (Avena fatua (AVEFA); 125 g/Ha): 60
- Herbicidal activity AVEFA (Avena fatua (AVEFA); 250 g/Ha): 70
- Herbicidal activity AVEFA (Avena fatua (AVEFA); 500 g/Ha): 80
